Test results published in US5003044A, “Peptide inhibitors of motor neuron attachment to s-laminin” (Washington University, priority 1989, dated 1991).
No end group written: not given here.

Assays:
[1] = tested on: adhesion of ciliary neurons to pET-RK36 s-laminin fragment; settings: for Inhibition of neuronal adhesion to pET-RK36 / s-laminin (in words): concentration not given
[2] = tested on: ciliary ganglion neurons; test: Cell attachment assay on immobilized substrata, ciliary ganglion neurons; type: cell-based, chick
Protocol: (§1) Substrates were immobilized to tissue culture dishes as described by Lagenaur and Lemmon, Proc. Natl. Acad. Sci. USA 84, 7753-7757 (1987). Briefly, nitrocellulose (BA85; Schleicher and Schuell, Keene, N.H.) was dissolved in methanol (1 cm^2 /ml), applied to tissue culture wells (90 µl per 16 mm diameter well) and allowed to dry. Drops (1.5-3 μl) of substrates in solution were applied and allowed to bind for 20 min. after which the drops were aspirated. Nonspecific binding sites on the nitrocellulose were then blocked by incubating wells with the following series of solutions: 10 mg/ml bovine serum albumin (BSA; Sigma) in PBS for ~1 min; 30 mg/ml BSA in PBS for 2-3 hr; Earles' Minimum Essential Medium (MEM) containing 2% fetal bovine serum and 25 mM HEPES, pH 7.4, for 5 min; PBS, twice briefly; and Earles' MEM containing 1 mg/ml BSA and 25 mM HEPES, pH 7.4, for 30 min at 37° C. in a humidified chamber containing 7% CO2. At this point, neurons were added, with or without synthetic peptides, and incubated for 2 hr at 37° C. Finally, the wells were washed twice with PBS pre-warmed to 37° and adherent cells were fixed in place with 2% paraformaldehyde and 2% glutaraldehyde in PBS.
Neurons were dissociated from chick ciliary ganglia as previously described by Nishi and Berg, Proc. Natl. Acad. Sci. USA 74, 5171-5175 (1977);
Covault et al., J. Cell Biol. 105, 2479-2488 (1987). Each well received ~5000 neurons, which corresponds to ~1 E8 ganglia, ~1.5 E10 ganglia, and ~2 E13 ganglia (E8, E10 and E13 are stages of development of the embryonic chick) [neuronal death is occurring over this time course; Landmessen and Pilar, J. Physiol. 241, 715-736 (1974)]. Chick dorsal root ganglia and optic tecta were dissociated in the same manner; each well received cells from 4-5 dorsal root ganglia or 0.25 optic tecta. For B35 and B104 cell lines, each well received 20,000 cells. For PC12 cells, each well received 5000 cells. In some tests, PC12 cells were grown with 50 ng/ml nerve growth factor (NGF) for 3-6 days before use. All cells were suspended in Earles' MEM containing 1 mg/ml BSA and 25 mM HEPES, pH 7.4, for addition to tissue culture wells.
Cell attachment assays were performed as described hereinbefore.

[3] = tested on: dorsal root ganglion neurons; test: Cell attachment assay on immobilized substrata, dorsal root ganglion neurons; type: cell-based, chick; settings: sensory neurons (cell type implied by context)
Protocol: as §1, with “Finally, the wells were washed twice with PBS pre-warmed to 37° and adherent cells were fixed in place with 2% paraformaldehyde and 2% glutaraldehyde in PBS.” left out
(§2) Ciliary neurons were selected for initial tests because many of these neurons normally form neuromuscular junctions on striated muscle fibers in vivo [Pilar et al., J. Neurophys. […] To extend these tests, it was determined whether neurons of other types also adhered to the s-laminin fragments. […]

[4] = tested on: neurons and neuron-like cells; test: Cell attachment assay, each cell type of Table 1; type: cell-based; settings: for each cell type, Table 1 footnote
Protocol: as §1
Covault et al., J. Cell Biol. 105, 2479-2488 (1987). […]

[5] = tested on: tectal neurons; test: Cell attachment assay on immobilized substrata, tectal neurons; type: cell-based, chick; settings: 2 hr
Protocol: as §1, with “Finally, the wells were washed twice with PBS pre-warmed to 37° and adherent cells were fixed in place with 2% paraformaldehyde and 2% glutaraldehyde in PBS.” left out
as §2

With AEKQLREQVGDQYQTVRALAE [Peptide M5] the IC50 [1] was 10 to 20 µM.
In the case of LREQVG [Peptide M513], the “Inhibition of neuronal adhesion to pET-RK36 / s-laminin (in words)” value [1] is reported as “inhibitory”.
KQLREQ [Peptide M512] was tested, and the “Inhibition of neuronal adhesion to pET-RK36 / s-laminin (in words)” value [1] was “inhibitory”.
With AEKQLR [Peptide M511] the “Inhibition of neuronal adhesion to pET-RK36 / s-laminin (in words)” value [1] was “inhibiting activity is not shown”.
In the case of AEKQLREQVGD [Peptide M51], the IC50 [1] is reported as 10 to 20 µM and the “IC50 for inhibition of neuronal adhesion to pET-RK36” value [1] is reported as ~ 20 μg/ml.
β-galactosidase: pure β-galactosidase was tested, and the “Attachment of ciliary neurons to recombinant proteins / bacterial extracts (FIG. 2)” value ([2]; control for vector-encoded sequences) was “no significant attachment”.
For poly-lysine, the “More neurons adhered to poly-lysine than to either laminin or s-laminin” value ([2]; ciliary neurons, each stage E8-E13) was 30-50%.
With laminin the “Fold more cells adhered to laminin than to s-laminin” value [3] was “at least 10 fold”, the “Cells applied that adhered to laminin” value [4] was 20 and the “Adhesion of tectal cells to substrate (FIG. 3)” value [5] was “adhere well”. The “Applied ciliary neurons adhered” value ([2]; 2 hour assay, optimal concentration of substrate on nitrocellulose) was 30-40%, the “Adhesion of ciliary neurons to substrate (FIG. 3)” value ([2]; 2 hr, laminin 100 μg/ml, pET-RK36 10 μg/ml) was “adhere well” and the “Optimal concentration in molar terms” value ([2]; Mr ~900,000 laminin, ~20,000 s-laminin fragment) was ~ 0.5 μM. The “Concentration of applied solution giving maximal adhesion” value ([2]; ciliary neurons) was ~ 500 μg/ml and the “Lowest concentration in solution with significant adhesion” value ([2]; ciliary neurons) was 20 µg/mL.
